For series [1], the system named is Bak−/− and DKO A549 cells. Description: apoptotic cell death in Bak knockout cells. The class given is cell-based, human. The text has this:
Bak is a pro-apoptotic protein required for programmed cell death and apoptosis induction in cancer cells. […] Experiments indicate that BKA-073 directly binds to Bak protein and induces Bak oligomerization in mitochondria leading to activation of a proapoptotic function. Experiments indicate that BKA-073-induced Bak oligomerization promotes mitochondrial priming and Cyt c release, which are early changes in net pro-apoptotic signaling at the mitochondria. BKA-073-induced mitochondrial priming and Cyt c release leads to apoptotic cell death of lung cancer cells.
Several Bax/Bak-independent mechanisms of apoptotic cell death have been described. […] It is contemplated that, in addition to the major Bak-dependent apoptosis mechanism, BKA-073 induces a small proportion of apoptotic cell death (about 20%) through Bax/Bak-independent mechanism(s).

Series [2] relates to A549 lung cancer xenografts. The series can be described thus: A549 lung cancer xenografts. Format: in vivo. The protocol: Nu/Nu mice bearing A549 lung cancer xenografts were treated with increasing doses of BKA-073 (5 to 15 mg/kg/d) i.p. for 28 days. Tumor volume was measured once every 2 days. After treatment, mice were sacrificed, and tumors were removed and analyzed.
To test the potency of BKA-073 in vivo, mice carrying lung cancer xenografts derived from A549 cells were treated i.p. with increasing doses (0, 5, 10, 15 mg/kg/d) of BKA-073 for 28 days. […] To assess whether BKA-073 induced suppression of tumor growth occurs through activation of Bak and apoptosis in vivo, representative samples from harvested tumor tissues were analyzed by cross-linking with BMH for Bak oligomerization or by immunohistochemistry (IHC) for active caspase 3. […] Doses between 5 mg/kg and 15 mg/kg provide an optimal therapeutic index for BKA-073 for in vivo experimentation involving lung cancer xenografts.

Series [3] concerns KRAS G12D LKB1fl/fl (KL) mice. Description: mutant KRAS-driven lung cancer GEMM. Format: in vivo. The settings on record: 15 mg/kg/d i.p., control 4 of 6, p<0.01. The protocol:
After administration of adenovirus Cre recombinase in KRAS G12D LKB1fl/fl (KL) mice for 6 weeks, KL mice were treated with KRA-073 (15 mg/kg/d) i.p. for 48 days (n=6 mice/group). Survival of mice is shown for up to 48 days before euthanization in the control group versus the BKA-073 treatment group.
To assess the potency of BKA-073 in KRAS mutant driven lung cancer, lox-stop-lox (LSL)-KRAS G12D LKB1fl/fl (i.e. KL) mice were generated and bred. These mice contain a KRAS G12D LSL knock-in allele and a floxed allele of LKB1 (LKB1fl/fl). Primary lung adenocarcinoma was detectable as early as 6 weeks after intranasal administration of 5×10^6 pfu adenovirus expressing Cre recombinase (AdeCre) in KRAS G12D LKB1fl/fl (KL) mice.
To further assess the potential of BKA-073 as therapy for mutant KRAS-driven lung cancer, BKA-073 (15 mg/kg/d) or vehicle was administered to KL mice i.p. starting at 6 weeks post AdeCre delivery. […] To quantify tumor burden and tumor multiplicity in mice, H&E-stained lungs were imaged with morphometric software to quantify the surface area composed of tumor as opposed to normal tissue compared with the control group. There were 4 deaths out of 6 mice in the control group versus 2 deaths out of 6 mice in the BKA-073 treatment group (p<0.01), calculated up to 48 days before euthanization (FIG. 5).

On to `COc1ccc2nc3ccccc3c(NCCNCC(C)O)c2c1` (stereo not shown) [BKA-073, 1-((2-((2-methoxyacridin-9-yl)amino)ethyl)amino)propan-2-ol], for which, in series [1], the apoptotic cell death result is on record as “about 20%”. For the same compound, the tolerability entry in series [2] (5 to 15 mg/kg/d) is on record as “well tolerated without significant toxicity”. Moreover, the “weight loss and organ toxicities” value in series [2] (dose range between 5 and 15 mg/kg/day) is on record as “without weight loss or significant organ toxicities”. Moreover, the “deaths up to 48 days” value in series [3] is listed as 2 deaths out of 6 mice.

These data come from patent US20240342157A1, “BAK ACTIVATORS, PHARMACEUTICAL COMPOSITIONS, AND USES IN TREATING CANCER” (Emory University, priority 2021, published 2024).
